According to patent US9750742B2, “Small molecular inhibitors of RAD51 recombinase and methods thereof” (Drexel University, priority 2011, dated 2017):
“Also recorded” adds a separate entry of the source.

Assays:
RAD51 = target: T1, RAD51 (Homo sapiens, UniProt Q06609); test: D-loop assay for RAD51; assay type: biochemical; conditions: compounds 100 μM; RAD51 1 μM
T1 construct: made in house
T1 sequence (Q06609 1-339): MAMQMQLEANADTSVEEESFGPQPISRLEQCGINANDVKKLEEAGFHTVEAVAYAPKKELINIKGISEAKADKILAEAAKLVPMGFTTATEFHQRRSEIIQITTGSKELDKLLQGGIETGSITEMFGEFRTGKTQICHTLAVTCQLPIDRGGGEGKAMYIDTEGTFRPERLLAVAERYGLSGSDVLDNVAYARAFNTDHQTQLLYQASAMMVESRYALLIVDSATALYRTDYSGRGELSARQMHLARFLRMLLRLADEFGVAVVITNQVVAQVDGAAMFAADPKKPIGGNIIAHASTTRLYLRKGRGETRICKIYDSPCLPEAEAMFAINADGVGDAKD
Description: When indicated, chemical compounds in question were added in specified concentrations and incubation was continued for 30 min at 37° C. D-loop formation was initiated by addition of supercoiled pUC19 dsDNA (50 μM, nt) and continued for 15 min. Reactions were stopped by addition of SDS to 1% (w/v) and proteinase K to 880 μg ml^−1 followed by incubation for 15 min at 37° C. […] The yield of joint molecules was expressed as a percentage of the total plasmid DNA.
The reaction was deproteinized and analyzed as described above.
IC50 values were calculated using GraphPad Prism V5.0 software and the sigmoidal dose-response function. The data were obtained from three independent repeats of experiments.

pUC19 supercoiled dsDNA = test: Ethidium bromide displacement assay; assay type: binding
Description: The fluorescence of the sample was measured using a FlouroMax-3 fluorimeter at an excitation wavelength of 260 nm and an emission wavelength of 546 nm. Then, the small molecule inhibitors were added in increasing concentrations and allowed to equilibrate for 1 min, followed by the fluorescence measurement.

[1] = tested on: DR-GFP reporter system in 293 human embryonic kidney (HEK) cells; test: DR-GFP assay for homologous recombination in human cells; assay type: cell-based; conditions: B02 20 μM; non-treatment cells 3.28%
Description: 293 HEK cells expressing DR-GFP were grown until the log phase. […] Then a 200 μl mixture containing 2 μg of pCBASce supercoiled plasmid DNA encoding I-SceI rare-cutting restriction endonuclease (Richardson et al., 1998, Genes Dev. 12:3831-42) and 6 μl of GenDrill™ transfection reagent (BamaGen BioScience LLC) in Opti-MEM® I Reduced-Serum (Invitrogen) was added to each well. After 2 days incubation, cells were trypsinized and diluted to density of 200 cells/μl in PBS (10 mM Na2HPO4, 1.76 mM KH2PO4, 137 mM NaCl and 2.7 mM KCl, pH 7.4) for Fluorescence Activated Cell Sorting (FACS) analysis on a Guava EasyCyte Plus System (Millipore, Billerica, Mass.).

MEF cells = test: Clonogenic survival assay, MEF; assay type: cell-based, mouse
Description: (§1) Briefly, MEF cells were trypsinized and the appropriate number of cells was replated on 10 cm tissue culture dishes. […] Cells were fixed and stained using staining solution (0.05% crystal violet, 50% methanol in PBS); colonies were counted using an AlphaImager 3400 (Alpha Innotech Inc.). The percent of survival was determined as described (Hall & Giccia, 2005, “Radiobiology for the Radiologist”, 6th Ed., Philadelphia, Pa.: Lippincott Williams & Wilkins, pp. 30-45). The percent of survival obtained from untreated cells was normalized to 100% survival.

HEK cells = test: Clonogenic survival, HEK cells sensitivity to cisplatin; assay type: cell-based, human
Description: as §1
To suppress RAD51 expression, HEK cells were transfected with 100 nM RAD51 siRNA (sc-36361; Santa Cruz Biotechnology). Briefly, cells (1×10^6) were seeded in a 3.5-cm tissue culture plate and incubated overnight, then the medium was removed and the cell layer was washed three times with PBS. Transfection was carried out by adding 1 ml transfection solution containing 100 pmol […] siRNA and 10 μl siRNA transfection reagent (sc-29528; Santa Cruz Biotechnology) in Opti-MEM I Reduced-Serum medium (Invitrogen) to each plate. Six to 7 hours after transfection the medium was replaced with fresh DMEM+. Twenty-four, 48, 72, and 96 h after transfection, the RAD51 level was determined using Western blotting. As a specificity control scrambled siRNA (sc-37007; Santa Cruz Biotechnology) was used instead of RAD51 siRNA.

[2] = tested on: RAD51 foci in 293 human embryonic kidney (HEK) cells; test: RAD51 foci formation; assay type: cell-based
Description: 2×10^5 log phase HEK-GFP cells were seeded in 3.5-cm tissue culture plates on glass coverslips pretreated with 0.01% poly-L-lysine (Sigma) and grown overnight. […] Cells were then exposed to 0.5 Gy IR using a Primus Linear Accelerator (Siemens) at […], 3 Gy/min followed by a 2-h incubation at 37° C. Cells were washed with phosphate-buffered saline (PBS) (8.1 mM Na2HPO4, 1.47 mM KH2PO4, 138 mM NaCl and 2.7 mM KCl, pH 7.4), extracted with PBS containing 0.2% Triton X-100 and 1 mM phenylmethanesulfonylfluoride (PMSF) for 5 min at 4° C., and fixed with PBS supplemented with 3.0% formaldehyde and 2.0% sucrose for 10 min. Cells were permeabilized with PBS containing 0.5% Triton X-100 for 5 min and blocked with PBS containing 3% BSA and 0.05% Tween 20 for 30 min at 23° C. Cells were treated with the polyclonal rabbit RAD51 antibodies (1:500 dilution) (a gift from Dr. Golub, Yale University) in PBS containing 3% BSA and 0.05% Triton X-100 overnight at 4° C., and then with Alexa Fluor 488 donkey antirabbit IgG (H+L) antibodies (1:1000 dilution) (Invitrogen) for 1 h at 23° C. followed by a 5-min staining with 500 ng/ml 4′,6-diamidino-2-phenylindole (DAPI) in PBS containing 0.05% Tween 20. Samples were washed in PBS containing 0.05% Tween 20, mounted in VectaShield™ (Vector Laboratories), and sealed with nail polish. The fluorescence images were obtained using an Olympus IX70 inverted microscope and iVision-Mac™ software (BioVision).

O=c1c2ccccc2nc(/C=C/c2cccnc2)n1Cc1ccccc1 [Compound B02, (E)-3-benzyl-2-(2-(pyridin-3-yl)vinyl)quinazolin-4(3H)-one] was tested, and the “Joint Molecules (%)” value (RAD51) was 6.0 ± 0.5%, the “DNA binding, result in words” value (pUC19 supercoiled dsDNA) was “not to bind DNA” and the “yield of GFP positive cells (I-SceI-induced)” value [1] was 0.40%. For the same molecule, the “sensitivity to cisDDP (cisplatin) and MMC” value (MEF cells; B02 5 μM) was “more sensitive”, the “sensitivity to MMS” value (MEF cells; B02 5 μM co-treatment with MMS) was “enhancement of sensitivity” and the “sensitivity to MMS” value (MEF cells; B02 5 μM plus AZD2281 1 μM versus AZD2281 only) was “more sensitive”. For the same molecule, the “increase in sensitivity to MMC” value (MEF cells; B02 5 μM, MMC 1 μM) was “fivefold”, the “increase in sensitivity to cisplatin” value (MEF cells; B02 5 μM, cisplatin 32 μM) was “approximately 17 fold” and the “cellular viability, B02 alone” value (MEF cells; up to 5 μM, wild type MEF) was “No decrease of cellular viability; also recorded: did not have a substantial effect”. The “incubation time at which maximal sensitivity was reached” value (HEK cells; B02 5 μM, cisplatin 16 μM) was 16 h, the “incubation time required to increase the sensitivity of HEK cells for cisplatin” value (HEK cells; B02 5 μM, cisplatin 16 μM) was 10 to 12 h and the “sensitization of HEK cells to cisplatin” value (HEK cells; B02 combined with RAD51 siRNA versus each alone) was “more strongly sensitized”. The “inhibition of IR-induced RAD51 foci formation, in words” value ([2]; B02 20 μM) was “inhibitory effect was smaller”, the “decrease of average number of RAD51 foci per nucleus” value ([2]; B02 50 μM) was 4.4 fold and the “decrease of fraction of cells with RAD51 foci” value ([2]; B02 50 μM) was 3.8 fold. The “fraction of cells with RAD51 foci (≧1 focus)” value ([2]; B02 50 μM, 0.5 Gy IR, without B02 72±10%) was 19±6% and the “average number of RAD51 foci per nucleus” value ([2]; B02 50 μM, without B02 53±11) was 12±4.
